Molecular target: T1, AChE (Homo sapiens, UniProt P22303)
T1 construct: purchased Sigma Aldrich, Taufkirchen, D
Test: biochemical

T1 sequence (P22303 32-614): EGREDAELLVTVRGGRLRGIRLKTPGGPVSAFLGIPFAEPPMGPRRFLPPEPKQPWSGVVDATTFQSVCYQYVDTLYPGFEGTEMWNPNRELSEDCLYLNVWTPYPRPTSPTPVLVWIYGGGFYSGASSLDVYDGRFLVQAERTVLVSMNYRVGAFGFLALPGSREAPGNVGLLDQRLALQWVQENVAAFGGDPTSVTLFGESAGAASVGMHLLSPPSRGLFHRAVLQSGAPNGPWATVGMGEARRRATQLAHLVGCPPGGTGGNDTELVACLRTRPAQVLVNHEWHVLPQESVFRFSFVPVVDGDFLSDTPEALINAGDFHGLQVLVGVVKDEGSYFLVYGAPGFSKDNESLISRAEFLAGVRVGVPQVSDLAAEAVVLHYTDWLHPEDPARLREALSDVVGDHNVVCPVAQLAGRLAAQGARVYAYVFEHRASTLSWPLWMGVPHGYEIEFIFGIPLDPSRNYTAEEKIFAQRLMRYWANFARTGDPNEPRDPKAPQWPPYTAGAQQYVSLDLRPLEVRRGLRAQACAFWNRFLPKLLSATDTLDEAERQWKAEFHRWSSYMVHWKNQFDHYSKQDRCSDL

CC1N=C(CCCCCCCCCCc2cc(O)ccc2OC2OC(CO)C(O)C(O)C2O)CC1O (stereo not drawn) [compound 1, tiliine A]
IC50: 231 µM

CC1NC(CCCCCCCCCc2cc(O)ccc2OC2OC(CO)C(O)C(O)C2O)CCC1O (stereo not drawn) [compound 2, tiliamine A]
IC50: 172 µM

CC(=O)OC1CCC(CCCCCCCCCc2cc(O)ccc2O[C@@H]2O[C@H](CO)[C@@H](O)[C@H](O)[C@H]2O)NC1C (stereo partly drawn) [compound 3, acetyl-tiliamine A]
IC50: 50% inhibition level was not achieved

— EP3960174B1 (priority 2020, dated 2022)
